These results are taken from patent US20050150764A1 (priority 2001, published 2005).

For series [1], the system named is larvae of the mustard beetle (Phaedon cochleariae). In words: Phaedon larvae test (Example B). It is filed as in vivo. As to conditions: 1000 ppm, after 7 days, cabbage leaves dipped. The protocol:
(§1) Phaedon larvae Test [table] To produce a suitable preparation of active compound, 1 part by weight of active compound is mixed with the stated amounts of solvent and emulsifier, and the concentrate is diluted with emulsifier-containing water to the desired concentration. Cabbage leaves (Brassica oleracea) are treated by being dipped into the preparation of active compound at the desired concentration and are populated with larvae of the mustard beetle (Phaedon cochleariae) while the leaves are still moist. After the desired period of time, the kill in % is determined. 100% means that all of the beetle larvae have been killed: 0% denotes that no beetle larvae have been killed.

For series [2], the system named is caterpillars of the army worm (Spodoptera frugiperda). In words: Spodoptera frugiperda test (Example E). It counts as in vivo. As to conditions: 1000 ppm, after 7 days, cabbage leaves dipped. The protocol: as §1, with “Spodoptera frugiperda” for “Phaedon larvae”, “caterpillars” for “larvae”, “army worm (Spodoptera frugiperda)” for “mustard beetle (Phaedon cochleariae)”, “caterpillars” for “beetle larvae”

A further series has as its system Lucilia cuprina larvae. In words: Blowfly larvae test/development inhibition activity (Example I). Conditions: 100% = no flies hatched. It counts as in vivo. The protocol: Blowfly Larvae Test/Development Inhibition Activity
(§2) 20 mg of active substance are dissolved in 1 ml of dimethyl sulphoxide; lower concentrations are prepared by dilution with distilled water.
About 20 Lucilia cuprina larvae are introduced into a test tube containing 1 cm^3 of horse meat and 0.5 ml of the test preparation of active compound. The efficacy of the active compound preparation is determined after 24 and 48 hours. The test tubes are transferred to beakers whose bases are covered with sand. After 2 more days, the test tubes are removed and the pupae are counted.
The activity of the active compound preparation is assessed in accordance with the number of flies which have hatched following 1.5 times the development period of an untreated control. 100% means that no flies have hatched; 0% means that all of the flies hatched normally.

The test system of series [3] is adult Musca domestica, strain: Reichswald (OP, SP, carbamate resistant). In words: Test with flies (Musca domestica) (Example H). It is filed as in vivo. On the procedure: Test with Flies (Musca domestica)
as §2
[…] After the filter disks have dried, 25 test organisms are transferred to the Petri dishes and covered.
The activity of the active compound preparation is determined after 1, 3, 5, 24 and 48 hours. 100% means that all the flies were killed; 0% means that none of the flies was killed.

The mark [4] stands for this setting: Concentration 4 μg fly, reading time not given.
The mark [5] stands for this setting: Concentration 20 μg fly, reading time not given.
Setting [6] is: Concentration 100 μg fly, reading time not stated (1, 3, 5, 24 and 48 hours in method).

Structures are written as SMILES.

With `O=C(Nc1ccc(Cl)cc1)N1CCC(n2cc(Cl)cn2)C(c2cccc(C(F)(F)F)c2)=N1` (stereo not shown) [Example 2], the “logP (pH 2)/ m.p. [° C.] (logP part)” value was 4.60/199. Also, the kill in series [1] is given as 100%. In series [2], the kill came out at 100%. For the same compound, the “% Activity/Kill” value with Lucilia cuprina larvae (Concentration 4 ppm) worked out at 0%. In addition, the “% Activity/Kill” value in the series on Lucilia cuprina larvae (Concentration 20 ppm) was 100%. The “% Activity/Kill” value in the series on Lucilia cuprina larvae (Concentration 100 ppm) is recorded as 100%. Also, the “% Activity/Kill” value in series [3] (setting [4]) amounted to 0%. Further, the “% Activity/Kill” value in series [3] (setting [5]) came to 30%. For the same compound, in series [3] (setting [6]), the “% Activity/Kill” value was 95%. On to `O=C(Nc1ccc(OC(F)(F)F)cc1)N1CCC(n2cc(Cl)cn2)C(c2cccc(C(F)(F)F)c2)=N1` (stereo not shown) [Example 3], for which the “logP (pH 2)/ m.p. [° C.] (logP part)” value is listed as 4.83/192. In series [1], this compound came in with a kill of 100%. Also, the kill in series [2] stood at 100%. In the series on Lucilia cuprina larvae (Concentration 4 ppm), the “% Activity/Kill” value stood at 0%. The “% Activity/Kill” value with Lucilia cuprina larvae (Concentration 20 ppm) is recorded as 100%. In addition, in the series on Lucilia cuprina larvae (Concentration 100 ppm), the “% Activity/Kill” value is reported as 100%. The “% Activity/Kill” value in series [3] (setting [4]) is on record as 0%. The “% Activity/Kill” value in series [3] (setting [5]) amounted to 50%. Besides, the “% Activity/Kill” value in series [3] (setting [6]) was found to be 95%.

`O=C(Nc1ccc(C(F)(F)F)cc1)N1CCC(n2cc(Cl)cn2)C(c2cccc(F)c2)=N1` (stereo not shown) [Example 4]: the “logP (pH 2)/ m.p. [° C.] (logP part)” value is 4.37/194. This compound yielded a kill in series [1] of 100%. In series [2], this compound had a kill of 100%.

Turning to `O=C(Nc1ccc(Cl)cc1)N1CCC(n2cc(Cl)cn2)C(c2cccc(F)c2)=N1` (stereo not shown) [Example 5], the “logP (pH 2)/ m.p. [° C.] (logP part)” value was 4.18/213. The kill in series [1] stood at 100%. Also, in series [2], the kill turned out to be 100%. The “% Activity/Kill” value in the series on Lucilia cuprina larvae (Concentration 20 ppm) worked out at 0%. The “% Activity/Kill” value in the series on Lucilia cuprina larvae (Concentration 100 ppm) is given as 100%. For the compound `O=C(Nc1ccc(OC(F)(F)F)cc1)N1CCC(n2cc(Cl)cn2)C(c2cccc(F)c2)=N1` (stereo not shown) [Example 6], the “logP (pH 2)/ m.p. [° C.] (logP part)” value is 4.43/148. Further, the kill in series [1] is on record as 100%. Also, the kill in series [2] is listed as 100%. Further, in the series with Lucilia cuprina larvae (Concentration 20 ppm), the “% Activity/Kill” value was 0%. Further, the “% Activity/Kill” value with Lucilia cuprina larvae (Concentration 100 ppm) came out at 100%. Also, the “% Activity/Kill” value in series [3] (setting [4]) worked out at 0%. In addition, the “% Activity/Kill” value in series [3] (setting [5]) is 50%. Also, the “% Activity/Kill” value in series [3] (setting [6]) turned out to be 99%. With `O=C(Nc1ccc(Cl)cc1)N1CCC(n2cc(Cl)cn2)C(c2cccc(Cl)c2)=N1` (stereo not shown) [Example 8], the “logP (pH 2)/ m.p. [° C.] (logP part)” value is 4.49/203. The kill in series [1] stood at 100%. This compound also returned a kill in series [2] of 100%. `O=C(Nc1ccc(Cl)cc1)N1CCC(n2cc(Cl)cn2)C(c2cccc(OC(F)(F)F)c2)=N1` (stereo not shown) [Example 10]: the “logP (pH 2)/ m.p. [° C.] (logP part)” value is 4.73/158. The same compound returned a kill in series [1] of 100%. In series [2], this compound came in with a kill of 100%. Regarding `O=C(Nc1ccc(Cl)cc1)N1CCC(n2cc(Cl)cn2)C(c2cccc(Br)c2)=N1` (stereo not shown) [Example 11], the “logP (pH 2)/ m.p. [° C.] (logP part)” value is on record as 4.58/198. Besides, the kill in series [1] is given as 100%. Moreover, the kill in series [2] is listed as 100%.

On to `O=C(Nc1ccc(OC(F)(F)F)cc1)N1CCC(n2cc(Cl)cn2)C(c2cccc(Br)c2)=N1` (stereo not shown) [Example 12], for which the “logP (pH 2)/ m.p. [° C.] (logP part)” value is listed as 4.82/197. The same compound returned a kill in series [1] of 100%. Further, the kill in series [2] is 100%. For the compound `N#Cc1cccc(C2=NN(C(=O)Nc3ccc(C(F)(F)F)cc3)CCC2n2cc(Cl)cn2)c1` (stereo not shown) [Example 16], the “logP (pH 2)/ m.p. [° C.] (logP part)” value is reported as 4.03/229. In series [1], this compound came in with a kill of 100%. In series [2], this compound came in with a kill of 100%. With `N#Cc1cnn(C2CCN(C(=O)Nc3ccc(Cl)cc3)N=C2c2cccc(Cl)c2)c1` (stereo not shown) [Example 18], the “logP (pH 2)/ m.p. [° C.] (logP part)” value is recorded as 3.90/228. The same measure, in the same setting: as for `N#Cc1cnn(C2CCN(C(=O)Nc3ccc(OC(F)(F)F)cc3)N=C2c2cccc(Cl)c2)c1` (stereo not shown) [Example 19], the figure is 4.15/186.

In the case of `N#Cc1ccc(NC(=O)N2CCC(n3cc(Cl)cn3)C(c3cccc(Cl)c3)=N2)cc1` (stereo not shown) [Example 20], the “logP (pH 2)/ m.p. [° C.] (logP part)” value is given as 3.77. On the same count and under the same terms, the figure for `N#Cc1cnn(C2CCN(C(=O)Nc3ccc(SC(F)(F)F)cc3)N=C2c2cccc(Cl)c2)c1` (stereo not shown) [Example 21] is 4.53/194; for `N#Cc1cnn(C2CCN(C(=O)Nc3ccc(Cl)cc3)N=C2c2cccc(Br)c2)c1` (stereo not shown) [Example 22] it is 3.96/213. As to `O=C(Nc1ccc(SC(F)(F)F)cc1)N1CCC(n2cc(Cl)cn2)C(c2cccc(C(F)(F)F)c2)=N1` (stereo not shown) [Example 23], the “logP (pH 2)/ m.p. [° C.] (logP part)” value was 5.21/188. For the same compound, the “% Activity/Kill” value with Lucilia cuprina larvae (Concentration 20 ppm) was 0%. Also, the “% Activity/Kill” value with Lucilia cuprina larvae (Concentration 100 ppm) was found to be 100%. Also, the “% Activity/Kill” value in series [3] (setting [5]) is listed as 0%. Moreover, the “% Activity/Kill” value in series [3] (setting [6]) came out at 90%.

Turning to `N#Cc1cnn(C2CCN(C(=O)Nc3ccc(SC(F)(F)F)cc3)N=C2c2cccc(Br)c2)c1` (stereo not shown) [Example 24], the “logP (pH 2)/ m.p. [° C.] (logP part)” value was 4.64/206.

As for `N#Cc1cnn(C2CCN(C(=O)Nc3ccc(OC(F)(F)F)cc3)N=C2c2cccc(Br)c2)c1` (stereo not shown) [Example 25], the “logP (pH 2)/ m.p. [° C.] (logP part)” value was 4.24/192.

Consider `N#Cc1cccc(C2=NN(C(=O)Nc3ccc(SC(F)(F)F)cc3)CCC2n2cc(C#N)cn2)c1` (stereo not shown) [Example 26], for which the “logP (pH 2)/ m.p. [° C.] (logP part)” value is recorded as 3.94/242. Still for that read-out and setting: the figure for `N#Cc1cnn(C2CCN(C(=O)Nc3ccc(C(F)(F)F)cc3)N=C2c2cccc(Br)c2)c1` (stereo not shown) [Example 27] is 4.18/244; for `N#Cc1cnn(C2CCN(C(=O)Nc3ccc(Br)cc3)N=C2c2cccc(Cl)c2)c1` (stereo not shown) [Example 28] it is 4.03; for `N#Cc1cccc(C2=NN(C(=O)Nc3ccc(OC(F)(F)F)cc3)CCC2n2cc(C#N)cn2)c1` (stereo not shown) [Example 29] it is 3.62/239.

Take `O=C(c1cccc(F)c1)C(Br)CCCl` (stereo not shown) [Example V-2]: the “logP (pH 2)” value was found to be 3.47.

In the case of `O=C(c1cccc(OC(F)(F)F)c1)C(Br)CCCl` (stereo not shown) [Example V-3], the “logP (pH 2)” value turned out to be 4.19. The same measure, in the same setting: as for `O=C(c1cccc(Br)c1)C(Br)CCCl` (stereo not shown) [Example V-4], the figure is 4.02; as for `FC(F)(F)c1cccc(C2=NNCCC2n2cc(Cl)cn2)c1` (stereo not shown) [II-2], 3.09.

For `Fc1cccc(C2=NNCCC2n2cc(Cl)cn2)c1` (stereo not shown) [II-3], the “logP (pH 2)” value is reported as 2.59. Consider `Clc1cccc(C2=NNCCC2n2cc(Cl)cn2)c1` (stereo not shown) [II-4], for which the “logP (pH 2)” value is given as 2.93. Same read-out and setting: the figure for `FC(F)(F)Oc1cccc(C2=NNCCC2n2cc(Cl)cn2)c1` (stereo not shown) [II-5] is 3.32.

For the compound `Clc1cnn(C2CCNN=C2c2cccc(Br)c2)c1` (stereo not shown) [II-6], the “logP (pH 2)” value was 3.03.

For the compound `N#Cc1cnn(C2CCNN=C2c2cccc(Cl)c2)c1` (stereo not shown) [II-7], the “logP (pH 2)” value was determined as 2.40.

On to `N#Cc1cnn(C2CCNN=C2c2cccc(Br)c2)c1` (stereo not shown) [II-8], for which the “logP (pH 2)” value worked out at 2.49. Same read-out and setting: the figure for `N#Cc1cccc(C2=NNCCC2n2cc(C#N)cn2)c1` (stereo not shown) [II-9] is 1.83; for `O=C(c1cccc(C(F)(F)F)c1)C(CCCl)n1cc(Cl)cn1` (stereo not shown) [IV-2] it is 3.84; for `O=C(c1cccc(F)c1)C(CCCl)n1cc(Cl)cn1` (stereo not shown) [IV-3] it is 3.31. On the same count and under the same terms, the figure for `O=C(c1cccc(Cl)c1)C(CCCl)n1cc(Cl)cn1` (stereo not shown) [IV-4] is 3.68. Still for that read-out and setting: as for `O=C(c1cccc(OC(F)(F)F)c1)C(CCCl)n1cc(Cl)cn1` (stereo not shown) [IV-5], the figure is 3.99; as for `O=C(c1cccc(Br)c1)C(CCCl)n1cc(Cl)cn1` (stereo not shown) [IV-6], 3.78; as for `N#Cc1cnn(C(CCCl)C(=O)c2cccc(Cl)c2)c1` (stereo not shown) [IV-7], 3.06. As for `N#Cc1cnn(C(CCCl)C(=O)c2cccc(Br)c2)c1` (stereo not shown) [IV-8], the “logP (pH 2)” value came out at 3.13. The same measure, in the same setting: as for `N#Cc1cccc(C(=O)C(CCCl)n2cc(C#N)cn2)c1` (stereo not shown) [IV-9], the figure is 2.41; as for `O=C(CCCCl)c1cccc(OC(F)(F)F)c1` [VI-2], 3.71. The same measure, in the same setting: the figure for `O=C(CCCCl)c1cccc(Br)c1` [VI-3] is 3.50; for `O=C1OCCC1C(=O)c1cccc(OC(F)(F)F)c1` (stereo not shown) [VIIa-4] it is 2.59.

On to `O=C1OCCC1C(=O)c1cccc(Br)c1` (stereo not shown) [Vlla-5], for which the “logP (pH 2)” value was found to be 2.22.
